# Structures can show the parent of a compound that is named as a salt.
# Target: T1, PAR1 (Homo sapiens (Human), UniProt P25116)
# Assay: Inhibition of PAR1-mediated platelet aggregation induced by TRAP
# Assay type: cell-based
# Conditions: TRAP-induced aggregation of washed platelets from healthy volunteer donors, 96-well format
# Method: PAR1 determination method: inhibition of PAR1-mediated platelet aggregation
# The pharmacological testing of the substances took place in platelet aggregation induced by TRAP (thrombin receptor-activating peptide) in 96-well format. For this purpose, blood was taken from healthy volunteer donors in 20 ml syringes containing 2 ml of 3.13% sodium citrate solution. After centrifugation at 150×g for 20 minutes, the platelet-rich plasma (PRP) was separated off and mixed with 1 μl of PGE1 solution (500 μg/ml in ethanol)/ml of PRP. Incubation at RT for 5 minutes was followed by centrifugation at 120×g for 15 minutes to remove the leukocytes. The leukocyte-free PRP was transferred in 5 ml portions into 15 ml PP tubes and centrifuged at 360×g for 15 minutes in order to pellet the platelets. The plasma was then decanted off and the platelet sediment from 5 ml of PRP was resuspended in 1 ml of Tyrode's (120 mM NaCl, 2.6 mM KCl, 12 mM NaHCO3, 0.39 mM NaH2PO4×H2O, 10 mM HEPES, 0.35% BSA, 5.5 mM glucose, pH 7.4) and adjusted with Tyrode's to a platelet count of 3×10^5/microliter (μL). 13 ml of this cell suspension were then mixed with 866 μL of 10 mM CaCl2 solution, and 120 μL thereof were pipetted into each well of a 96-well plate containing 15 μL of the substance to be tested. After incubation at room temperature in the dark for 30 minutes, 15 μL of a TRAP solution (70-100 μM) were added as agonist, and kinetics were recorded at 650 nm in a SpectraMax 340 at 37° C. for 20 minutes while shaking. The areas under the curves of negative control (Tyrode's/DMSO) and positive control (15 μl of agonist/DMSO) were calculated and the difference was fixed as the 100% value. The substances to be tested were pipetted as serial dilutions in duplicate determination, the AUC was likewise determined for each substance concentration, and the % inhibition of the AUC compared with the control was calculated. On the basis of the % inhibition, the IC50 was calculated by nonlinear regression analysis according to the 4-parameter equation.
# T1 sequence (P25116 22-425): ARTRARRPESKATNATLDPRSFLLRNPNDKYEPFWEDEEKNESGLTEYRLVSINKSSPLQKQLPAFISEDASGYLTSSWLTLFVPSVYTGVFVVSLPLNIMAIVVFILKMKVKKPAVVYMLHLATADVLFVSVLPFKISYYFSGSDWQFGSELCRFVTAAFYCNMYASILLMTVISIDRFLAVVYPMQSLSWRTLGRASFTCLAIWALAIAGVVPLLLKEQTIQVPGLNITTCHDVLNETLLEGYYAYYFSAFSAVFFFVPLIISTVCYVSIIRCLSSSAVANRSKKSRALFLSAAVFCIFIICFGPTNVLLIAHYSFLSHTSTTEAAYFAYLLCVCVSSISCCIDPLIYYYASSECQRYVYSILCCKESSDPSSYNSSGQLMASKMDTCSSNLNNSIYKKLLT
row,Compound,IC50 [nM]
1,"CCOc1ccc2nn(CC(=O)c3cc(N4CCOCC4)c(OC)c(C(F)(F)F)c3)c(=N)n2n1 [Example 5, 2-(6-Ethoxy-3-imino-[1,2,4]triazolo[4,3-b]pyridazin-2-yl)-1-(4-methoxy-3-morpholin-4-yl-5-trifluormethylphenyl)ethanone trifluoroacetic acid salt]",8500
2,"CCOc1ccc2nn(CC(=O)c3cc(N4CCOCC4)c(OC)c(C(C)(C)C)c3)c(=N)n2n1 [Example 7, 1-(3-tert-butyl-4-methoxy-5-morpholin-4-ylphenyl)-2-(6-ethoxy-3-imino-[1,2,4]triazolo[4,3-b]pyridazin-2-yl)ethanone trifluoroacetic acid salt]",158
3,"CC(C)(C)c1cc(C(=O)Cn2nc3ccc(Cl)nn3c2=N)cc(C(C)(C)C)c1O [Example 2, 2-(6-chloro-3-imino-[1,2,4]triazolo[4,3-b]pyridazin-2-yl)-1-(3,5-di-tert-butyl-4-hydroxyphenyl)ethanone]",1600
4,"CCOc1ccc2nn(CC(=O)c3cc(NC(C)=O)cc(S(F)(F)(F)(F)F)c3)c(=N)n2n1 [Example 1, N-[3-[2-(6-Ethoxy-3-imino-[1,2,4]triazolo[4,3-b]pyridazin-2-yl)acetyl]-5-(pentafluorosulfanyl)phenyl]acetamide as the trifluoroacetic acid salt]",650
5,"CCC(CC)Oc1ccc2nn(CC(=O)c3cc(NC)cc(S(F)(F)(F)(F)F)c3)c(=N)n2n1 [Example 16, 2-[6-(1-ethylpropoxy)-3-imino-[1,2,4]triazolo[4,3-b]pyridazin-2-yl]-1-[3-methylamino-5-(pentafluorosulfanyl)phenyl]ethanone trifluoroacetic acid salt]",127

# Continued, values first:
row,IC50 [nM],Compound
1,59,"CCC(CC)Oc1nn2c(=N)n(CC(=O)c3cc(OC)cc(S(F)(F)(F)(F)F)c3)nc2c(C)c1C [Example 85, 2-[6-(1-ethylpropoxy)-3-imino-7,8-dimethyl-[1,2,4]triazolo[4,3-b]pyridazin-2-yl]-1-[3-methoxy-5-(pentafluorosulfanyl)-phenyl]ethanone trifluoroacetic acid salt]"
2,9,"CCC(CC)Oc1cc(C)c2nn(CC(=O)c3cc(COCCCO)cc(C(C)(C)C)c3)c(=N)n2n1 [Example 77, 1-[3-tert-butyl-5-(3-hydroxy-propoxymethyl)phenyl]-2-[6-(1-ethylpropoxy)-3-imino-8-methyl-[1,2,4]triazolo[4,3-b]-pyridazin-2-yl]ethanone hydrochloride]"
3,334,"COCC(COC)Oc1cc(C)c2nn(CC(=O)c3cc(OCCO)cc(C(C)(C)C)c3)c(=N)n2n1 [Example 98, 1-[3-tert-butyl-5-(2-hydroxy-ethoxy)phenyl]-2-[3-imino-6-(2-methoxy-1-methoxymethyl-ethoxy)-8-methyl-[1,2,4]triazolo[4,3-b]pyridazin-2-yl]ethanone hydrochloride]"
4,25,"CCC(CC)Oc1cc(C)c2nn(CC(=O)c3cc(OCCOC)cc(C(C)(C)C)c3)c(=N)n2n1 [Example 66, 1-[3-tert-butyl-5-(2-methoxy-ethoxy)phenyl]-2-[6-(1-ethylpropoxy)-3-imino-8-methyl-[1,2,4]triazolo[4,3-b]pyridazin-2-yl]ethanone hydrochloride]"
5,12,"CCC(CC)Oc1cc(C)c2nn(CC(=O)c3cc(OCCCO)cc(C(C)(C)C)c3)c(=N)n2n1 [Example 90, 1-[3-tert-butyl-5-(3-hydroxy-propoxy)phenyl]-2-[6-(1-ethyl-propoxy)-3-imino-8-methyl-[1,2,4]triazolo[4,3-b]pyridazin-2-yl]ethanone hydrochloride]"
6,16,"CCN(CC)c1cc(C)c2nn(CC(=O)c3cc(OC)cc(S(F)(F)(F)(F)F)c3)c(=N)n2n1 [Example 108, 2-(6-diethylamino-3-imino-8-methyl-[1,2,4]triazolo[4,3-b]pyridazin-2-yl)-1-[3-methoxy-5-(pentafluorosulfanyl)phenyl]-ethanone trifluoroacetic acid salt]"

# Target: T1, PAR1
# Assay: PAR1 binding test (radioligand displacement, membrane preparation)
# Conditions: human PAR1 expressed in High Five insect cell membranes; radioligand 20 nM; read-out: Inhibition of binding IC50
# Method: The synthesized substances were examined in a PAR1 binding test. This tested whether the substances can inhibit the binding of a radioactively labeled PAR1 agonist known from the literature at the PAR1 receptor (Ho-Sam Ahn, Mol Pharm, 51:350-356, 1997). The human PAR1 receptor was expressed transiently in High Five insect cells. From these cells, after 48 hours, a membrane preparation was produced by standard methods, aliquoted into 10 mM Tris-HCl; 0.3 mM EDTA; 1 mM EGTA; 250 mM sucrose pH 7.5, and stored at −80° C.
# The substances were preincubated with the membrane at room temperature for 15 minutes, then the radioligand (ALA-(para-F-Phe)-Arg-ChA-homoArg-(3,4-^3H-Tyr)-NH2; approx. 40 Ci/mMol) was added. The end concentration of the radioligand in the test buffer (50 mM Tris-HCl; 10 mM MgCl2; 1 mM EGTA; 0.1% BSA; 2% DMSO) was 20 nM, that of the membrane 1 mg/ml. After an incubation time of 60 minutes, 25 μL of the mixture were transferred to a 96-well MultiScreenHTS FB microtiter filtration plate (from Millipore), which had been pretreated beforehand with a 0.75% aqueous polyethyleneimine solution for 5 hours at room temperature. Thereafter, with vacuum extraction, each well was washed four times with 300 μL of buffer (50 mM Tris-HCl; 10 mM MgCl2; 1 mM EGTA). The plate was then dried overnight, 100 μl of scintillator per well were added, and the plate was analyzed after 6 hours in a Wallac MicroBeta (from PerkinElmer) liquid scintillation counter. The nonspecific binding was determined in the presence of 100 μM SCH79797 (PAR-1 antagonist; from Tocris, Cat. No. 1592) and subtracted from all measurements. The 100% value used was a control without inhibitor. The % inhibition values of a substance dilution series were used to calculate the IC50 with the aid of nonlinear regression analysis according to the 4-parameter equation.
row,Compound,IC50 [nM]
1,"CCOc1nn2c(=N)n(CC(=O)c3cc(OCCCCO)c(OC)c(C(C)(C)C)c3)nc2c(C)c1C [Example 178, 1-[3-tert-butyl-5-(4-hydroxy-butoxy)-4-methoxyphenyl]-2-(6-ethoxy-3-imino-7,8-dimethyl-[1,2,4]triazolo[4,3-b]pyridazin-2-yl)ethanone hydrochloride]",126
2,"CCOc1nn2c(=N)n(CC(=O)c3cc(OCCCO)c(OC)c(C(C)(C)C)c3)nc2c(CC)c1CC [Example 197, 1-[3-tert-butyl-5-(3-hydroxy-propoxy)-4-methoxyphenyl]-2-(6-ethoxy-7,8-diethyl-3-imino-[1,2,4]triazolo[4,3-b]pyridazin-2-yl)ethanone hydrochloride]",149

# From patent US9079906B2, “Triazolopyridazines as PAR1 inhibitors, production thereof, and use as medicaments” (Sanofi, priority 2008, dated 2015)
